Structures can show the parent of a compound that is named as a salt. Where two headings read alike, the source gives them in different places.
Assay: Phase 1a single ascending dose study: UV-4 plasma concentrations and PK parameters (LC-MS/MS, noncompartmental)
Type: in vivo
Conditions: for Tmax: median; for AUC(0-t) / Vd/F / AUC(0-inf): both sexes, human, plasma, po; for AUC(0-t): read-out: AUC(0-8); for Vd/F: read-out: Vz/F; for AUC(0-inf): read-out: AUC(0-inf)
Description: UV-4 ((2R,3R,4R,5S)-2-(hydroxymethyl)-1-(9-methoxynonyl)piperidine-3,4,5-triol, also called N-(9’-methoxynonyl)-1-deoxynojirimycin, or MON-DNJ) hydrochloride was evaluated in a first-in-human, randomized, single-center, double-blind, placebo-controlled, parallel group, single ascending dose Phase 1a clinical trial in healthy subjects (Figs 1 and 2, ClinicalTrials.gov Identifier NCT02061358 https://clinicaltrials.gov/ct2/show/NCT02061358). The primary objective was to determine the safety and tolerability of a single-ascending oral dose of UV-4 hydrochloride (Fig 3). […] The secondary objective was to determine PK parameters describing absorption and elimination of UV-4 following a single oral dose of UV-4 hydrochloride. Eight cohorts of eight subjects each were enrolled and completed the study. In each cohort, six subjects received UV-4 as the hydrochloride; two received placebo. Subjects were screened against study eligibility criteria up to four weeks (Days -28 to -2) before admission to the clinic (Day -1). Dosing was performed on an inpatient basis. Subjects remained in clinic for 48 hours post-dosing for PK sample collection and safety assessments and were discharged from the clinic on Day 3. Subjects returned to the clinic on Day 4 for additional safety assessments, then again on Day 9 ± 1 for a final follow-up visit.
Eligible subjects were healthy males and females, age 18–45 years, with a body mass index between 18 and 30 kg/m^2 inclusive and a minimum body weight of 60 kg. Subjects were considered healthy based on medical history, physical exam, vital signs, 12-lead electrocardiogram (ECG), clinical laboratory tests (hematology, blood chemistry, urinalysis), viral serology, and drug and alcohol screening. Male and female subjects of childbearing potential were required to use adequate contraception over the course of the clinical trial. […] Only subjects who met all inclusion and none of the exclusion criteria prior to administration of the investigational product were enrolled into the study (no exemptions were granted). A total of 64 subjects were enrolled (eight cohorts of eight subjects each). In each of the eight cohorts, six subjects were randomized to receive a single dose of UV-4 (3 to 1000 mg, depending on cohort) as the hydrochloride salt, and two subjects to receive placebo. Cohort size of six active subjects was based on analysis that increasing cohort size above six in a first-in-human study gains little in the ability to observe a drug induced event, and results in observing more events that are not related to study drug. Two of the eight subjects in each cohort (sentinel subjects; one active and one placebo) received their doses at least 48 h before the remaining subjects in each cohort.
On each day of use, bulk drug substance (UV-4B for solubilization, SAI Life Sciences Ltd. Telangana, India) was removed from a single-use container, weighed at the study center, and solubilized in 20 mL sterile water for injection (SWFI) (Hospira Inc. Illinois, United States of America). Weight of solid drug substance was converted to dose of UV-4 by applying purity and salt correction factor per pharmacy manual when preparing the dosing solution. UV-4B solution was administered orally with 10 mL of taste-masking agent, OraSweet-SF (Paddock Laboratories LLC, Minneapolis, United States of America) in a total volume of 30 mL, to assist in maintaining study blinding. Placebo was SWFI (20 mL) plus OraSweet-SF (10 mL). Concentrations and doses were calculated and expressed as the active free base form, UV-4. This methodology is consistent with USP<1121>, which recommends that the strength of a drug product or preparation is expressed in terms of the active moiety. Following consumption of active or placebo solution, the dosing container was rinsed with 50 mL of tap water also consumed by subjects. […]

[1] = 720 mg single oral dose, Ar Mean
[2] = 720 mg single oral dose, Geo Mean
[3] = 1000 mg single oral dose, Ar Mean
[4] = 1000 mg single oral dose, Geo Mean
[5] = 3 mg, 3 mg single oral dose, Ar Mean
[6] = 3 mg, 3 mg single oral dose, Geo Mean
[7] = 10 mg, 10 mg single oral dose, Ar Mean
[8] = 10 mg, 10 mg single oral dose, Geo Mean
[9] = 30 mg, 30 mg single oral dose, Ar Mean
[10] = 30 mg, 30 mg single oral dose, Geo Mean
[11] = 90 mg, 90 mg single oral dose, Ar Mean
[12] = 90 mg, 90 mg single oral dose, Geo Mean
[13] = 180 mg, 180 mg single oral dose, Ar Mean
[14] = 180 mg, 180 mg single oral dose, Geo Mean
[15] = 360 mg, 360 mg single oral dose, Ar Mean
[16] = 360 mg, 360 mg single oral dose, Geo Mean
[17] = 720 mg, 720 mg single oral dose, Ar Mean
[18] = 720 mg, 720 mg single oral dose, Geo Mean
[19] = 1000 mg, 1000 mg single oral dose, Ar Mean
[20] = 1000 mg, 1000 mg single oral dose, Geo Mean

For `COCCCCCCCCCN1C[C@H](O)[C@@H](O)[C@H](O)[C@H]1CO` [UV-4B, N-(9’-methoxynonyl)-1-deoxynojirimycin hydrochloride], the Cmax [1] was 9930 ng/mL, the “DNAUC(0-inf)” value [1] was 45.7 ng·h/mL/mg and the DNCmax [1] was 13.8 ng/mL/mg. For the same compound, the t1/2 [1] was 8.19 h, the CL/F [2] was 22.0 L/h and the Cmax [2] was 9760 ng/mL. The “DNAUC(0-inf)” value [2] was 45.5 ng·h/mL/mg, the DNCmax [2] was 13.6 ng/mL/mg and the t1/2 [2] was 8.18 h. For the same compound, the Tmax (720 mg single oral dose) was 0.75 h, the CL/F [3] was 23.6 L/h and the Cmax [3] was 13100 ng/mL. The “DNAUC(0-inf)” value [3] was 43.1 ng·h/mL/mg, the DNCmax [3] was 13.1 ng/mL/mg and the t1/2 [3] was 8.83 h. For the same compound, the CL/F [4] was 23.4 L/h, the Cmax [4] was 13000 ng/mL and the “DNAUC(0-inf)” value [4] was 42.8 ng·h/mL/mg. The DNCmax [4] was 13.0 ng/mL/mg, the t1/2 [4] was 8.58 h and the Tmax (1000 mg single oral dose) was 1.00 h. It also gave an AUC(0-t) [5] of 56.5 ng·h/mL, a Vd/F [5] of 491 L and an AUC(0-t) [6] of 55.9 ng·h/mL. The AUC(0-inf) [6] was 94.6 ng·h/mL, the Vd/F [6] was 470 L and the AUC(0-t) [7] was 271 ng·h/mL. For the same compound, the AUC(0-inf) [7] was 431 ng·h/mL, the Vd/F [7] was 424 L and the AUC(0-t) [8] was 265 ng·h/mL. The AUC(0-inf) [8] was 420 ng·h/mL, the Vd/F [8] was 409 L and the AUC(0-t) [9] was 901 ng·h/mL. The AUC(0-inf) [9] was 1260 ng·h/mL, the Vd/F [9] was 349 L and the AUC(0-t) [10] was 896 ng·h/mL. For the same compound, the AUC(0-inf) [10] was 1260 ng·h/mL, the Vd/F [10] was 344 L and the AUC(0-t) [11] was 2800 ng·h/mL. For the same compound, the AUC(0-inf) [11] was 3730 ng·h/mL, the Vd/F [11] was 365 L and the AUC(0-t) [12] was 2790 ng·h/mL. For the same compound, the AUC(0-inf) [12] was 3700 ng·h/mL, the Vd/F [12] was 358 L and the AUC(0-t) [13] was 5910 ng·h/mL. The AUC(0-inf) [13] was 7110 ng·h/mL, the Vd/F [13] was 321 L and the AUC(0-t) [14] was 5880 ng·h/mL. It also gave an AUC(0-inf) [14] of 7090 ng·h/mL, a Vd/F [14] of 317 L and an AUC(0-t) [15] of 11900 ng·h/mL. The AUC(0-inf) [15] was 13800 ng·h/mL, the Vd/F [15] was 309 L and the AUC(0-t) [16] was 11800 ng·h/mL. The AUC(0-inf) [16] was 13700 ng·h/mL, the Vd/F [16] was 308 L and the AUC(0-t) [17] was 29100 ng·h/mL. It also gave an AUC(0-inf) [17] of 32900 ng·h/mL, a Vd/F [17] of 260 L and an AUC(0-t) [18] of 28900 ng·h/mL. The AUC(0-inf) [18] was 32800 ng·h/mL, the Vd/F [18] was 259 L and the AUC(0-t) [19] was 38700 ng·h/mL. For the same compound, the AUC(0-inf) [19] was 43100 ng·h/mL, the Vd/F [19] was 299 L and the AUC(0-t) [20] was 38500 ng·h/mL. For the same compound, the AUC(0-inf) [20] was 42800 ng·h/mL and the Vd/F [20] was 290 L.
